This is an account of results in ChEMBL document CHEMBL1201862, “PubChem BioAssay data set” (2004).

Some test systems named below: SK-MEL-28; A498; OVCAR-3; UO-31; SF-268; ACHN; SK-MEL-5; SK-OV-3; HOP-62; CAKI-1; Malme-3M; M14; SR; A549; HOP-92; SK-MEL-2; DU-145; LOX IMVI; MDA-N; CCRF-CEM.
What all share (experiment): NCI-60 cell line screen, 48 h

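All cell lines were grown in 96-well plates and treated with compound for 48 hours. GI50 marks 50% less growth.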 Activity calls are given as the source filed them. Rule as the data show it: active = GI50 up to about 1.1 µM and inactive = higher.

In the case of `O=C(/C=C/c1ccccc1)Oc1ccc(C(=O)/C=C/c2ccccc2)cc1`, the GI50 in the assay with SK-MEL-28 was 12.4 µM (inactive); in the assay on A498, > 10 µM (inactive); in the assay with OVCAR-3, 10.3 µM (inactive); in the assay with UO-31, 10.4 µM (inactive); with SF-268, 12.3 µM (inactive); with ACHN it was 11.9 µM (inactive). Further, the GI50 in the assay on SK-MEL-5 was 16.9 µM (inactive); in the assay with SK-OV-3 it was 21.4 µM (inactive); in the assay on HOP-62 it was 12.9 µM (inactive); in the assay with CAKI-1, 13.1 µM (inactive); in the assay on Malme-3M it was > 10 µM (inactive); in the assay with M14, 14.1 µM (inactive). For the same compound, the GI50 was 2.1 µM (inactive) in the assay on SR; 25.1 µM (inactive) in the assay on A549; 17.1 µM (inactive) in the assay with HOP-92; 22.4 µM (inactive) in the assay on SK-MEL-2; 10.3 µM (inactive) in the assay on DU-145; 4.98 µM (inactive) in the assay on LOX IMVI. The GI50 in the assay on MDA-N was 6.3 µM (inactive); in the assay with CCRF-CEM it was 3.3 µM (inactive).

Turning to `CC(C)=CCC[C@@H](C)C1=C(O)C(=O)C(C)=C(Nc2ccccc2I)C1=O`, the GI50 with SK-MEL-28 is 18.3 µM (inactive); in the assay with A498, 5.43 µM (inactive); in the assay on OVCAR-3, 4.6 µM (inactive); in the assay with UO-31, 10.1 µM (inactive); in the assay on SF-268, 11.3 µM (inactive); in the assay on ACHN, 16.4 µM (inactive). Also, the GI50 is 9.79 µM (inactive) in the assay on SK-MEL-5; 18.5 µM (inactive) in the assay on SK-OV-3; 7.59 µM (inactive) in the assay with HOP-62; 12.9 µM (inactive) in the assay with CAKI-1; 12.2 µM (inactive) in the assay on Malme-3M; 17 µM (inactive) in the assay with M14. The GI50 was 1.3 µM (inactive) in the assay with SR; 11.8 µM (inactive) in the assay on A549; 14.5 µM (inactive) with HOP-92; 10.8 µM (inactive) in the assay with SK-MEL-2; 23.4 µM (inactive) with DU-145; 5.73 µM (inactive) in the assay with LOX IMVI. For the same compound, the GI50 with MDA-N is 21.2 µM (inactive); in the assay on CCRF-CEM it was 3.03 µM (inactive).

With `CC1C(c2ccccc2O)c2cc3c(cc2OC1N1CCOCC1)OCO3` (stereo not given), the GI50 in the assay with SK-MEL-28 is 40.6 µM (inactive); in the assay on A498, 19.2 µM (inactive); in the assay with OVCAR-3, 22.6 µM (inactive); with UO-31, 26.7 µM (inactive); with SF-268 it was 43 µM (inactive); in the assay with ACHN, 29.4 µM (inactive). Besides, the GI50 with SK-MEL-5 was 22.1 µM (inactive); in the assay with SK-OV-3, 40.1 µM (inactive); with HOP-62, 18.5 µM (inactive); with CAKI-1 it was 25.1 µM (inactive); in the assay on Malme-3M, 16.9 µM (inactive); in the assay with M14, 35.4 µM (inactive). Besides, the GI50 in the assay with SR is 12.5 µM (inactive); in the assay on A549, 25.6 µM (inactive); in the assay with HOP-92, 27 µM (inactive); with SK-MEL-2 it was 29 µM (inactive); in the assay with DU-145, 38.5 µM (inactive); with LOX IMVI, 18 µM (inactive). Moreover, the figures for the GI50 in the assay on MDA-N and in the assay on CCRF-CEM were 35.2 µM (inactive) and 20.7 µM (inactive), respectively.

Turning to `COC1C(=O)N(SC)C1c1ccccc1Cl` (stereo not given), the GI50 in the assay on SK-MEL-28 is > 100 µM (inactive); in the assay with A498 it was > 100 µM (inactive); in the assay with OVCAR-3, 19.6 µM (inactive); with UO-31 it was 17.5 µM (inactive); in the assay on SF-268, > 100 µM (inactive); in the assay with ACHN, 18.8 µM (inactive). The GI50 in the assay with SK-MEL-5 was 95.5 µM (inactive); in the assay with SK-OV-3 it was > 100 µM (inactive); in the assay on HOP-62, > 100 µM (inactive); in the assay with CAKI-1, 80.5 µM (inactive); in the assay with Malme-3M it was 22.6 µM (inactive); in the assay on M14 it was 28.1 µM (inactive). For the same compound, the GI50 was 18.6 µM (inactive) with SR; > 100 µM (inactive) in the assay on A549; 36.1 µM (inactive) in the assay with HOP-92; > 100 µM (inactive) in the assay with SK-MEL-2; > 100 µM (inactive) in the assay on DU-145; 42.2 µM (inactive) with LOX IMVI. In addition, the GI50 is 34.6 µM (inactive) in the assay on MDA-N and 14.6 µM (inactive) with CCRF-CEM.

For the compound `CN1C[C@@H]2CCCN2P1Oc1cccc2cccnc12` (stereo not given in full), the GI50 was 73.1 µM (inactive) with SK-MEL-28; > 100 µM (inactive) with A498; 23.4 µM (inactive) with OVCAR-3; 34.9 µM (inactive) with UO-31; 16 µM (inactive) in the assay with SF-268; 49 µM (inactive) in the assay on ACHN. Further, the GI50 in the assay with SK-MEL-5 was 41.5 µM (inactive); with SK-OV-3, > 100 µM (inactive); in the assay on HOP-62 it was 52.1 µM (inactive); with CAKI-1, 35.3 µM (inactive); with Malme-3M, 25.8 µM (inactive); with M14 it was 33.7 µM (inactive). Further, the GI50 was 25.7 µM (inactive) in the assay on SR; 44.5 µM (inactive) with A549; > 100 µM (inactive) in the assay on HOP-92; 50.7 µM (inactive) in the assay with SK-MEL-2; 83.4 µM (inactive) in the assay with DU-145; 97.5 µM (inactive) with LOX IMVI. The GI50 in the assay with MDA-N is 55.2 µM (inactive); with CCRF-CEM it was 2.41 µM (inactive).

As for `CC(=O)CCNc1ccc(-c2cc(-c3ccc(N(C)C)cc3)nc3ccc4ccccc4c23)cc1`, the GI50 in the assay with SK-MEL-28 is 34.8 µM (inactive); in the assay with A498, 43.8 µM (inactive); in the assay with OVCAR-3, 44.8 µM (inactive); in the assay with UO-31 it was 23.5 µM (inactive); with SF-268, > 44.5 µM (inactive); in the assay on ACHN, 17.8 µM (inactive). Further, the GI50 with SK-MEL-5 is 59.8 µM (inactive); in the assay with SK-OV-3, > 100 µM (inactive); in the assay on HOP-62, > 100 µM (inactive); in the assay on CAKI-1 it was > 65.8 µM (inactive); in the assay on Malme-3M, > 67.8 µM (inactive); in the assay with M14, 32.4 µM (inactive). The GI50 was 7.11 µM (inactive) with SR; 34.1 µM (inactive) with A549; 79.3 µM (inactive) in the assay with HOP-92; 51.1 µM (inactive) in the assay on SK-MEL-2; > 57.5 µM (inactive) with DU-145; > 100 µM (inactive) with LOX IMVI. In addition, the GI50 in the assay with MDA-N was > 100 µM (inactive); with CCRF-CEM, 8.07 µM (inactive).

Take `NC1=NC(c2ccc(Cl)cc2)N(c2ccc(S(=O)(=O)Nc3ncccn3)cc2)C(N)=N1` (stereo not given): the GI50 in the assay with SK-MEL-28, in the assay on A498, in the assay on OVCAR-3, in the assay with UO-31, with SF-268 and with ACHN was > 100 µM (inactive) in each case. In addition, the GI50 with SK-MEL-5, in the assay on SK-OV-3, in the assay on HOP-62, in the assay on CAKI-1, in the assay with Malme-3M and in the assay on M14 was > 100 µM (inactive) throughout. For the same compound, the GI50 in the assay on SR, in the assay with A549, in the assay on HOP-92, with SK-MEL-2, in the assay with DU-145 and in the assay with LOX IMVI was > 100 µM (inactive) in each case. The GI50 in the assay with MDA-N and in the assay on CCRF-CEM was > 100 µM (inactive) in each case.

Take `Cc1ccc(N/N=C2\C3=C(CCC(C)(C)O3)C(=O)c3ccccc32)cc1`: the GI50 in the assay on SK-MEL-28 is 21.9 µM (inactive); in the assay on A498 it was 18.3 µM (inactive); with OVCAR-3 it was 24.2 µM (inactive); in the assay with UO-31, 23.4 µM (inactive); in the assay with SF-268, 30.3 µM (inactive); with ACHN it was 23.9 µM (inactive). Further, the GI50 is 4.17 µM (inactive) with SK-MEL-5; > 100 µM (inactive) with SK-OV-3; 20.6 µM (inactive) in the assay with HOP-62; 28.2 µM (inactive) with CAKI-1; 9.16 µM (inactive) in the assay with Malme-3M; 16.9 µM (inactive) with M14. For the same compound, the GI50 was 16.5 µM (inactive) with SR; 16 µM (inactive) with A549; 43.5 µM (inactive) with HOP-92; 18.9 µM (inactive) in the assay with SK-MEL-2; 12.4 µM (inactive) in the assay on DU-145; 10.3 µM (inactive) in the assay with LOX IMVI. In addition, the GI50 was 4.43 µM (inactive) with MDA-N and 15.1 µM (inactive) in the assay with CCRF-CEM.

In the case of `CCCC(=O)N[C@H]1CCc2cc(OC)c(OC)c(OC)c2-c2ccc(SC)c(=O)cc21`, the GI50 in the assay on SK-MEL-28 was < 0.01 µM (active); with A498 it was < 0.01 µM (active); with OVCAR-3, < 0.01 µM (active); in the assay on UO-31, 0.31 µM (active); in the assay with SF-268 it was < 0.01 µM (active); with ACHN, < 0.01 µM (active). The GI50 in the assay with SK-MEL-5 was < 0.01 µM (active); in the assay on SK-OV-3 it was 0.143 µM (active); in the assay with HOP-62 it was < 0.01 µM (active); with CAKI-1, < 0.01 µM (active); in the assay with Malme-3M, < 0.01 µM (active); in the assay on M14 it was < 0.01 µM (active). The GI50 in the assay on SR, in the assay on A549, in the assay on HOP-92, with SK-MEL-2, with DU-145 and in the assay on LOX IMVI was < 0.01 µM (active) in each case. The results for the GI50 in the assay with MDA-N and with CCRF-CEM were < 0.01 µM (active) and < 0.0465 µM (active), respectively.

As to `O=C(OCCC12CC3CC(CC(C3)C1)C2)c1ccc(NCc2cc(O)ccc2O)cc1`, the GI50 in the assay on SK-MEL-28 is 0.849 µM (active); in the assay on A498, 1.9 µM (inactive); in the assay with OVCAR-3, 0.239 µM (active); with UO-31, 0.376 µM (active); in the assay on SF-268, 2.49 µM (inactive); in the assay with ACHN it was 1.63 µM (inactive). Moreover, the GI50 is 1.12 µM (inactive) in the assay with SK-MEL-5; 2.91 µM (inactive) in the assay on SK-OV-3; 3.56 µM (inactive) in the assay on HOP-62; 0.363 µM (active) with CAKI-1; 1.85 µM (inactive) with Malme-3M; 1.24 µM (inactive) with M14. Also, the GI50 with SR was 0.404 µM (active); in the assay with A549, 2.14 µM (inactive); in the assay with HOP-92, 3.74 µM (inactive); in the assay with SK-MEL-2, 1.24 µM (inactive); in the assay on DU-145, 3.3 µM (inactive); in the assay with LOX IMVI, 0.757 µM (active). Moreover, the GI50 is 1.36 µM (inactive) with MDA-N and 0.101 µM (active) in the assay on CCRF-CEM.
